# Reference: the supplement of paper PMC10307832
# Key:
# Test in all cases: relative viability (nuclei count vs DMSO), 5 days (fraction); higher = more cells survive
# A-427 = tested on: A-427
# How it was run: (§1)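 Five library-drug doses in √10 steps were combined with a fixed anchor-drug dose, or a single drug was given alone, by pin tool to lung cancer cell lines in 1536-well plates the day after seeding. Nuclei were stained and counted after 5 days. Relative viability is the nuclei count in treated wells over that in vehicle wells, taken as the median of duplicate plates.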
# ABC-1 = tested on: ABC-1
# How it was run: as §1
# EMC-BAC-2 = tested on: EMC-BAC-2
# How it was run: as §1
# HARA = tested on: HARA
# How it was run: as §1
# HOP-62 = tested on: HOP-62
# How it was run: as §1
# LK-2 = tested on: LK-2
# How it was run: as §1
# LXF-289 = tested on: LXF-289
# How it was run: as §1
# NCI-H1792 = tested on: NCI-H1792
# How it was run: as §1
# NCI-H1944 = tested on: NCI-H1944
# How it was run: as §1
# NCI-H1993 = tested on: NCI-H1993
# How it was run: as §1
# NCI-H2009 = tested on: NCI-H2009
# How it was run: as §1
# NCI-H2170 = tested on: NCI-H2170
# How it was run: as §1
# NCI-H2228 = tested on: NCI-H2228
# How it was run: as §1
# NCI-H3122 = tested on: NCI-H3122
# How it was run: as §1
# NCI-H322M = tested on: NCI-H322M
# How it was run: as §1
# NCI-H522 = tested on: NCI-H522
# How it was run: as §1
# NCI-H596 = tested on: NCI-H596
# How it was run: as §1
# NCI-H727 = tested on: NCI-H727
# How it was run: as §1
# PC-3 [JPC-3] = tested on: PC-3 [JPC-3]
# How it was run: as §1
# SK-MES-1 = tested on: SK-MES-1
# How it was run: as §1
# SW 1573 = tested on: SW 1573
# How it was run: as §1
# SW 900 = tested on: SW 900
# How it was run: as §1
compound,measurement,setting,value
O=c1cc(N2CCOCC2)oc2c(-c3cccc4c3sc3ccccc34)cccc12 + COc1cccc2cc(-c3nc([C@H]4CC[C@H](C(=O)O)CC4)n4ncnc(N)c34)[nH]c12 [OSI-027] (partner 0.5 µM),relative viability,A-427; first compound 0.01 µM,0.514
same,relative viability,A-427; first compound 0.03162 µM,0.469
same,relative viability,A-427; first compound 0.1 µM,0.337
same,relative viability,A-427; first compound 0.3162 µM,0.484
same,relative viability,A-427; first compound 1 µM,0.587
same,relative viability,ABC-1; first compound 0.01 µM,0.483
same,relative viability,ABC-1; first compound 0.03162 µM,0.436
same,relative viability,ABC-1; first compound 0.1 µM,0.557
same,relative viability,ABC-1; first compound 0.3162 µM,0.523
same,relative viability,ABC-1; first compound 1 µM,0.501
same,relative viability,EMC-BAC-2; first compound 0.01 µM,0.409
same,relative viability,EMC-BAC-2; first compound 0.03162 µM,0.427
same,relative viability,EMC-BAC-2; first compound 0.1 µM,0.419
same,relative viability,EMC-BAC-2; first compound 0.3162 µM,0.423
same,relative viability,EMC-BAC-2; first compound 1 µM,0.385
same,relative viability,HARA; first compound 0.01 µM,0.549
same,relative viability,HARA; first compound 0.03162 µM,0.638
same,relative viability,HARA; first compound 0.1 µM,0.554
same,relative viability,HARA; first compound 0.3162 µM,0.585
same,relative viability,HARA; first compound 1 µM,0.564
same,relative viability,HOP-62; first compound 0.01 µM,0.787
same,relative viability,HOP-62; first compound 0.03162 µM,0.842
same,relative viability,HOP-62; first compound 0.1 µM,0.821
same,relative viability,HOP-62; first compound 0.3162 µM,0.81
same,relative viability,HOP-62; first compound 1 µM,0.804
same,relative viability,LK-2; first compound 0.01 µM,0.24
same,relative viability,LK-2; first compound 0.03162 µM,0.361
same,relative viability,LK-2; first compound 0.1 µM,0.181
same,relative viability,LK-2; first compound 0.3162 µM,0.219
same,relative viability,LK-2; first compound 1 µM,0.212
same,relative viability,LXF-289; first compound 0.01 µM,0.807
same,relative viability,LXF-289; first compound 0.03162 µM,0.778
same,relative viability,LXF-289; first compound 0.1 µM,0.755
same,relative viability,LXF-289; first compound 0.3162 µM,0.825
same,relative viability,LXF-289; first compound 1 µM,0.81
same,relative viability,NCI-H1792; first compound 0.01 µM,0.717
same,relative viability,NCI-H1792; first compound 0.03162 µM,0.716
same,relative viability,NCI-H1792; first compound 0.1 µM,0.653
same,relative viability,NCI-H1792; first compound 0.3162 µM,0.752
same,relative viability,NCI-H1792; first compound 1 µM,0.779
same,relative viability,NCI-H1944; first compound 0.01 µM,0.443
same,relative viability,NCI-H1944; first compound 0.03162 µM,0.436
same,relative viability,NCI-H1944; first compound 0.1 µM,0.429
same,relative viability,NCI-H1944; first compound 0.3162 µM,0.44
same,relative viability,NCI-H1944; first compound 1 µM,0.391
same,relative viability,NCI-H1993; first compound 0.01 µM,0.501
same,relative viability,NCI-H1993; first compound 0.03162 µM,0.521
same,relative viability,NCI-H1993; first compound 0.1 µM,0.566
same,relative viability,NCI-H1993; first compound 0.3162 µM,0.532
same,relative viability,NCI-H1993; first compound 1 µM,0.65
same,relative viability,NCI-H2009; first compound 0.01 µM,0.697
same,relative viability,NCI-H2009; first compound 0.03162 µM,0.791
same,relative viability,NCI-H2009; first compound 0.1 µM,0.664
same,relative viability,NCI-H2009; first compound 0.3162 µM,0.65
same,relative viability,NCI-H2009; first compound 1 µM,0.654
same,relative viability,NCI-H2170; first compound 0.01 µM,0.716
same,relative viability,NCI-H2170; first compound 0.03162 µM,0.845
same,relative viability,NCI-H2170; first compound 0.1 µM,0.716
same,relative viability,NCI-H2170; first compound 0.3162 µM,0.716
same,relative viability,NCI-H2170; first compound 1 µM,0.716
same,relative viability,NCI-H2228; first compound 0.01 µM,0.677
same,relative viability,NCI-H2228; first compound 0.03162 µM,0.775
same,relative viability,NCI-H2228; first compound 0.1 µM,0.558
same,relative viability,NCI-H2228; first compound 0.3162 µM,0.605
same,relative viability,NCI-H2228; first compound 1 µM,0.548
same,relative viability,NCI-H3122; first compound 0.01 µM,1.02
same,relative viability,NCI-H3122; first compound 0.03162 µM,0.911
same,relative viability,NCI-H3122; first compound 0.1 µM,0.907
same,relative viability,NCI-H3122; first compound 0.3162 µM,0.987
same,relative viability,NCI-H3122; first compound 1 µM,0.934
same,relative viability,NCI-H322M; first compound 0.01 µM,0.599
same,relative viability,NCI-H322M; first compound 0.03162 µM,0.646
same,relative viability,NCI-H322M; first compound 0.1 µM,0.282
same,relative viability,NCI-H322M; first compound 0.3162 µM,0.579
same,relative viability,NCI-H322M; first compound 1 µM,0.43
same,relative viability,NCI-H522; first compound 0.01 µM,0.83
same,relative viability,NCI-H522; first compound 0.03162 µM,0.708
same,relative viability,NCI-H522; first compound 0.1 µM,0.496
same,relative viability,NCI-H522; first compound 0.3162 µM,0.737
same,relative viability,NCI-H522; first compound 1 µM,0.737
same,relative viability,NCI-H596; first compound 0.01 µM,0.738
same,relative viability,NCI-H596; first compound 0.03162 µM,0.747
same,relative viability,NCI-H596; first compound 0.1 µM,0.493
same,relative viability,NCI-H596; first compound 0.3162 µM,0.828
same,relative viability,NCI-H596; first compound 1 µM,0.722
same,relative viability,NCI-H727; first compound 0.01 µM,0.498
same,relative viability,NCI-H727; first compound 0.03162 µM,0.567
same,relative viability,NCI-H727; first compound 0.1 µM,0.473
same,relative viability,NCI-H727; first compound 0.3162 µM,0.592
same,relative viability,NCI-H727; first compound 1 µM,0.659
same,relative viability,PC-3 [JPC-3]; first compound 0.01 µM,0.762
same,relative viability,PC-3 [JPC-3]; first compound 0.03162 µM,0.768
same,relative viability,PC-3 [JPC-3]; first compound 0.1 µM,0.644
same,relative viability,PC-3 [JPC-3]; first compound 0.3162 µM,0.738
same,relative viability,PC-3 [JPC-3]; first compound 1 µM,0.825
same,relative viability,SK-MES-1; first compound 0.01 µM,0.613
same,relative viability,SK-MES-1; first compound 0.03162 µM,0.685
same,relative viability,SK-MES-1; first compound 0.1 µM,0.531
same,relative viability,SK-MES-1; first compound 0.3162 µM,0.633
same,relative viability,SK-MES-1; first compound 1 µM,0.579
same,relative viability,SW 1573; first compound 0.01 µM,0.675
same,relative viability,SW 1573; first compound 0.03162 µM,0.709
same,relative viability,SW 1573; first compound 0.1 µM,0.678
same,relative viability,SW 1573; first compound 0.3162 µM,0.615
same,relative viability,SW 1573; first compound 1 µM,0.737
same,relative viability,SW 900; first compound 0.01 µM,0.565
same,relative viability,SW 900; first compound 0.03162 µM,0.572
same,relative viability,SW 900; first compound 0.1 µM,0.311
same,relative viability,SW 900; first compound 0.3162 µM,0.69
same,relative viability,SW 900; first compound 1 µM,0.545
